From ChEMBL document CHEMBL1201862, “PubChem BioAssay data set” (2004)
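Five compound concentrations were applied to cells in 96-well plates for 48 hours; endpoints were derived by simple linear interpolation of the resulting dose-response curve. GI50 = concentration required for 50% inhibition of growth.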 Activity calls are given as the source filed them. Cut-off read from the data, not from the text of the source: active = GI50 up to about 1.1 µM and inactive = higher.

Tests used:
Experiment in all cases: growth of human tumour cells (NCI), 48 h
[1] = system: SK-MEL-2
[2] = system: UACC-62
[3] = system: HCT-116
[4] = system: SR
[5] = system: SNB-75
[6] = system: UO-31
[7] = system: IGROV-1
[8] = system: KM12
[9] = system: MCF7
[10] = system: K562
[11] = system: OVCAR-8
[12] = system: SK-OV-3
[13] = system: HOP-92
[14] = system: OVCAR-3
[15] = system: HL-60
[16] = system: SW-620
[17] = system: A549
[18] = system: SF-539
[19] = system: EKVX
[20] = system: SF-268

Compound	GI50 [1]	GI50 [2]	GI50 [3]	GI50 [4]	GI50 [5]	GI50 [6]	GI50 [7]	GI50 [8]	GI50 [9]	GI50 [10]	GI50 [11]	GI50 [12]	GI50 [13]	GI50 [14]	GI50 [15]	GI50 [16]	GI50 [17]	GI50 [18]	GI50 [19]	GI50 [20]
CC(=O)O[C@H]1CC[C@H]2[C@@H]3CC[C@H]4Nc5c(cnn5S(C)(=O)=O)C[C@]4(C)[C@H]3CC[C@]12C	61.7 µM (inactive)	33.7 µM (inactive)	46.8 µM (inactive)	> 100 µM (inactive)	37.2 µM (inactive)	88.1 µM (inactive)	> 100 µM (inactive)	> 100 µM (inactive)	28.6 µM (inactive)	62.7 µM (inactive)	45.4 µM (inactive)	77.6 µM (inactive)	98.9 µM (inactive)	27.5 µM (inactive)	> 100 µM (inactive)					
O=c1cc[nH]c(=O)[nH]1 [URACIL]	393 µM (inactive)	330 µM (inactive)	261 µM (inactive)		350 µM (inactive)	1000 µM (inactive)	> 828 µM (inactive)	237 µM (inactive)	398 µM (inactive)	465 µM (inactive)	527 µM (inactive)	813 µM (inactive)	311 µM (inactive)	667 µM (inactive)	581 µM (inactive)	361 µM (inactive)	435 µM (inactive)	378 µM (inactive)	294 µM (inactive)	578 µM (inactive)
COc1ccc2ccc3oc(=O)c(C)cc3c2c1	> 100 µM (inactive)	10.9 µM (inactive)	> 100 µM (inactive)	> 100 µM (inactive)	28.8 µM (inactive)	25.2 µM (inactive)	> 100 µM (inactive)	> 100 µM (inactive)	> 100 µM (inactive)	> 100 µM (inactive)	> 100 µM (inactive)		> 10 µM (inactive)	> 100 µM (inactive)	> 100 µM (inactive)	> 100 µM (inactive)	> 100 µM (inactive)	> 100 µM (inactive)	8.32 µM (inactive)	> 100 µM (inactive)
CC/C=C/C(CC)C/C(C)=C\[C@]1(CC)C[C@H](CC)[C@H](CC(=O)O)OO1 (stereo partly specified)	1.74 µM (inactive)	1.66 µM (inactive)	0.41 µM (active)	0.114 µM (active)		0.0157 µM (active)	0.0612 µM (active)	0.0991 µM (active)	1.77 µM (inactive)	0.355 µM (active)	1.09 µM (active)	1.9 µM (inactive)		1.15 µM (inactive)	0.682 µM (active)	0.352 µM (active)	0.121 µM (active)	1.51 µM (inactive)		1.39 µM (inactive)
CC12CCC([C@H](Nc3cc(C(F)(F)F)cc(C(F)(F)F)c3)C1=O)C2(C)C (stereo partly specified)	> 100 µM (inactive)		> 100 µM (inactive)	> 100 µM (inactive)		> 100 µM (inactive)	47.3 µM (inactive)	> 100 µM (inactive)		> 100 µM (inactive)	> 100 µM (inactive)	> 100 µM (inactive)		16.8 µM (inactive)		> 100 µM (inactive)	> 100 µM (inactive)	> 100 µM (inactive)	> 100 µM (inactive)	> 100 µM (inactive)
SC1=NC2=C(CSC/C2=C\c2cccc(Br)c2)C(c2cccc(Br)c2)N1 (stereo unspecified)	> 100 µM (inactive)	> 100 µM (inactive)	43.7 µM (inactive)		41.6 µM (inactive)		> 100 µM (inactive)	88.5 µM (inactive)	64.1 µM (inactive)	45.7 µM (inactive)	> 100 µM (inactive)	> 100 µM (inactive)		> 100 µM (inactive)	> 100 µM (inactive)	> 100 µM (inactive)	> 100 µM (inactive)	> 100 µM (inactive)	42.3 µM (inactive)	> 100 µM (inactive)
Cc1ccc2nc3c(C(=O)NCCN(C)C)cccc3cc2c1	2.36 µM (inactive)	2.35 µM (inactive)	0.807 µM (active)		2.99 µM (inactive)	1.4 µM (inactive)	2.23 µM (inactive)	2.9 µM (inactive)	2.81 µM (inactive)	2.36 µM (inactive)	1.5 µM (inactive)	2.39 µM (inactive)	1.75 µM (inactive)	2 µM (inactive)	1.23 µM (inactive)	1.39 µM (inactive)	1.33 µM (inactive)	3.15 µM (inactive)	0.802 µM (active)	1.26 µM (inactive)
O=C1CN2C(Cl)(Cl)C2(c2ccccc2)c2cc(Cl)ccc2N1CC(F)(F)F (stereo unspecified)	24 µM (inactive)	56.1 µM (inactive)	21.6 µM (inactive)	28.9 µM (inactive)	13 µM (inactive)	36.3 µM (inactive)	26.8 µM (inactive)	19.6 µM (inactive)		27.8 µM (inactive)	33.4 µM (inactive)	51.2 µM (inactive)	13.6 µM (inactive)	18.8 µM (inactive)	> 10 µM (inactive)	39.4 µM (inactive)			32.2 µM (inactive)	38.4 µM (inactive)
[O-][S+]1c2ccccc2N=C(c2ccc3ccccc3c2)CC1c1ccccc1 (stereo unspecified)	30.8 µM (inactive)	36.6 µM (inactive)	19.1 µM (inactive)	17.9 µM (inactive)	17.1 µM (inactive)	18.4 µM (inactive)	16.9 µM (inactive)	13.9 µM (inactive)		23.7 µM (inactive)	16.4 µM (inactive)	36.2 µM (inactive)	35.6 µM (inactive)		25.9 µM (inactive)	15.3 µM (inactive)	21.3 µM (inactive)	18.4 µM (inactive)	25.1 µM (inactive)	18.2 µM (inactive)
O=S1(=O)C[C@@H](NCc2ccccc2)[C@H](NCc2ccccc2)C1	> 100 µM (inactive)	> 100 µM (inactive)	> 100 µM (inactive)	> 100 µM (inactive)	> 100 µM (inactive)	> 100 µM (inactive)	26.2 µM (inactive)	> 100 µM (inactive)	> 100 µM (inactive)	> 100 µM (inactive)	> 100 µM (inactive)	> 100 µM (inactive)	> 100 µM (inactive)	> 100 µM (inactive)		> 100 µM (inactive)	> 100 µM (inactive)	> 100 µM (inactive)	> 100 µM (inactive)	> 100 µM (inactive)
COc1cc2c(cc1OC)C(=O)/C(=C/c1cc(OC)c(OC)c(OC)c1)C2	> 100 µM (inactive)	> 100 µM (inactive)		> 100 µM (inactive)	> 100 µM (inactive)	> 100 µM (inactive)	> 100 µM (inactive)	> 100 µM (inactive)	> 100 µM (inactive)	> 100 µM (inactive)	> 100 µM (inactive)	> 100 µM (inactive)	> 100 µM (inactive)	> 100 µM (inactive)	> 100 µM (inactive)					
COC(=O)C(NC(=O)c1ccccc1)C(c1ccc(Cl)cc1)P(=O)(OC)OC (stereo unspecified)	> 100 µM (inactive)	> 100 µM (inactive)	> 100 µM (inactive)	> 100 µM (inactive)	> 100 µM (inactive)	> 100 µM (inactive)	> 100 µM (inactive)	> 100 µM (inactive)		> 100 µM (inactive)	> 100 µM (inactive)	> 100 µM (inactive)	> 100 µM (inactive)		> 100 µM (inactive)	> 100 µM (inactive)	> 100 µM (inactive)	> 100 µM (inactive)	> 100 µM (inactive)	> 100 µM (inactive)
CC(C)C(/C=C/c1ccc(Cl)cc1)=N\NC(=O)N/N=C(/C=C/c1ccc(Cl)cc1)C(C)C	26.4 µM (inactive)	35.5 µM (inactive)	20.2 µM (inactive)	30.8 µM (inactive)	21.7 µM (inactive)	40.9 µM (inactive)	28.8 µM (inactive)	> 100 µM (inactive)	> 100 µM (inactive)	47.8 µM (inactive)	19.4 µM (inactive)	32.4 µM (inactive)	21.7 µM (inactive)	19.6 µM (inactive)	> 100 µM (inactive)	82 µM (inactive)	19 µM (inactive)	16.7 µM (inactive)	21.4 µM (inactive)	20 µM (inactive)
CN1C2CC(=O)CC1[C@H](O)[C@@H]2O	> 100 µM (inactive)		> 100 µM (inactive)	> 100 µM (inactive)		> 100 µM (inactive)		> 100 µM (inactive)	> 100 µM (inactive)	> 100 µM (inactive)	> 100 µM (inactive)			> 100 µM (inactive)	> 100 µM (inactive)	> 100 µM (inactive)			> 100 µM (inactive)	> 100 µM (inactive)
COC(=O)C(Cc1cn(C(C)=O)c2ccccc12)P(=O)(OC)OC (stereo unspecified)		> 100 µM (inactive)	> 100 µM (inactive)	> 100 µM (inactive)	60.3 µM (inactive)	72.9 µM (inactive)	> 100 µM (inactive)	> 100 µM (inactive)	20.7 µM (inactive)	> 100 µM (inactive)	> 100 µM (inactive)		> 100 µM (inactive)	> 100 µM (inactive)	> 100 µM (inactive)	> 100 µM (inactive)	> 100 µM (inactive)	> 100 µM (inactive)		> 100 µM (inactive)
CC1OC1C(=O)C1(O)C(C)C(O)C23OC2(C(O)c2c(O)cccc2C3=O)C1O (stereo unspecified) [CERVICARCIN]	0.142 µM (active)	0.245 µM (active)	0.226 µM (active)		0.212 µM (active)	0.137 µM (active)	0.219 µM (active)	0.298 µM (active)	0.228 µM (active)	0.175 µM (active)	0.172 µM (active)	0.111 µM (active)	0.033 µM (active)	0.0638 µM (active)	0.152 µM (active)	0.078 µM (active)	0.0488 µM (active)	0.0647 µM (active)	0.0908 µM (active)	0.0984 µM (active)
